Measurements taken from patent US9120804B2, “8-substituted 2-amino-[1,2,4] triazolo [1, 5-A] pyrazines as Syk tryrosine kinase inhibitors and GCN2 serin kinase inhibitors” (Merck Patent GmbH, priority 2012, dated 2015).

Molecular target: T1, SYK (Homo sapiens, UniProt P43405)
T1 construct: 2.5 nM SYK, 400 nM Biotin-Aha-Aha-KEDPDYEWPSAKK
Experiment: SYK flash plate assay (enzyme assay)
Assay type: biochemical
Method: The kinase assay is performed either as 384-well Flashplate assay (for e.g. Topcount measurement) or as 384-well Image-Flashplate assay (for LEADseeker measurement).
2.5 nM SYK, 400 nM Biotin-Aha-Aha-KEDPDYEWPSAKK
and 10 μM ATP (spiked with 0.3 μCi 33P-ATP/well) are incubated in a total volume of 50 μl (60 mM Hepes, 10 mM MgCl2, 1.2 mM Dithiothreitol, 0.02% Brij35, 0.1% BSA, pH 7.5) with or without test compound for 1 hours at 30° C. The reaction is stopped with 25 μl 200 mM EDTA. After 30 Min at 30° C. the liquid is removed and each well washed thrice with 100 μl 0.9% sodium chloride solution. Non-specific reaction is determined in presence of […] Staurosporine. Radioactivity is measured with Topcount (when using Flashplates) or with LEADseeker (when using Image-Flashplates) respectively. Results (e.g. IC50-values) are calculated with program tools provided by the IT-department (e.g. Symyx Assay Explorer, Genedata Screener). In Vivo Assays CIA

CC1(C)CNc2cc(Nc3nc4c(N5CCCCCC5)nccn4n3)ccc21 [E99, (8-azepan-1-yl-[1,2,4]triazolo[1,5-a]pyrazin-2-yl)-(3,3-dimethyl-2,3-dihydro-1H-indol-6-yl)-amine] and CC1(C)C(=O)Nc2cc(Nc3nc4c(N5CCCC6(COC6)C5)nccn4n3)ccc21 [C92, 3,3-dimethyl-6-[8-(2-oxa-6-aza-spiro[3.5]non-6-yl)-[1,2,4]triazolo[1,5-a]pyrazin-2-ylamino]-1,3-dihydro-indol-2-one] cannot be ordered by IC50: less than 0.1 µM for the first, less than 0.1 µM for the second.

CC1(C)C(=O)Nc2cc(Nc3nc4c(N5CCC6(CCC(=O)N6)CC5)nccn4n3)ccc21 [E35, 8-[2-(3,3-dimethyl-2-oxo-2,3-dihydro-1H-indol-6-ylamino)-[1,2,4]triazolo[1,5-a]pyrazin-8-yl]-1,8-diaza-spiro[4.5]decan-2-one] and CC1(C)C(=O)Nc2cc(Nc3nc4c(N5CCC6(CC5)CNC(=O)O6)nccn4n3)ccc21 [E27, 8-[2-(3,3-dimethyl-2-oxo-2,3-dihydro-1H-indol-6-ylamino)-[1,2,4]triazolo[1,5-a]pyrazin-8-yl]-1-oxa-3,8-diaza-spiro[4.5]decan-2-one] cannot be ordered by IC50: less than 0.1 µM for the first, less than 0.1 µM for the second.

First: CC1(C)C(=O)Nc2cc(Nc3nc4c(-c5ccc(N(C(F)(F)F)C(F)(F)F)cc5)nccn4n3)ccc21 [E152, 6-{8-[4-(bis-trifluoromethyl-amino)-phenyl]-[1,2,4]triazolo[1,5-a]pyrazin-2-ylamino}-3,3-dimethyl-1,3-dihydro-indol-2-one]
Second: CN1CCC(C)(C)c2cc(-c3nccn4nc(Nc5ccc6c(c5)NC(=O)C6(C)C)nc34)ccc21 [E143, 3,3-dimethyl-6-[8-(1,4,4-trimethyl-1,2,3,4-tetrahydro-quinolin-6-yl)-[1,2,4]triazolo[1,5-a]pyrazin-2-ylamino]-1,3-dihydro-indol-2-one]
The IC50 of the first is higher: 3 to 50 µM for the first, 0.1 to 0.3 µM for the second. The second is the more potent here.

First: Cc1nc(C2CCN(c3nccn4nc(Nc5ccc6c(c5)NC(=O)C6(C)C)nc34)CC2)[nH]c1C [E37, 6-{8-[4-(4,5-dimethyl-1H-imidazol-2-yl)-piperidin-1-yl]-[1,2,4]triazolo[1,5-a]pyrazin-2-ylamino}-3,3-dimethyl-1,3-dihydro-indol-2-one]
Second: Cc1nn(C)c(C)c1-c1nccn2nc(Nc3ccc4c(c3)NC(=O)C4(C)C)nc12 [C68, 3,3-dimethyl-6-[8-(1,3,5-trimethyl-1H-pyrazol-4-yl)-[1,2,4]triazolo[1,5-a]pyrazin-2-ylamino]-1,3-dihydro-indol-2-one]
The IC50 of the first is lower: 0.1 to 0.3 µM for the first, 0.3 to 3 µM for the second.

Compared with N#Cc1ccc(Nc2nc3c(-c4ccccc4-c4ccccc4)nccn3n2)cc1O [C35, 4-(8-Biphenyl-2-yl-[1,2,4]triazolo[1,5-a]pyrazin-2-ylamino)-2-hydroxybenzonitrile], COc1ccc(OC)c(Nc2nc3c(-c4ccccc4-c4ccccc4)nccn3n2)c1 [C3, (8-Biphenyl-2-yl-[1,2,4]triazolo[1,5-a]pyrazin-2-yl)-(2,5-dimethoxy-phenyl)-amine] is lower in IC50: 3 to 50 µM for the first, 0.3 to 3 µM for the second. The second is the more potent here.

First: COc1cccc(Nc2nc3c(-c4ccccc4C#N)nccn3n2)c1 [E31, 2-[2-(3-methoxy-phenylamino)-[1,2,4]triazolo[1,5-a]pyrazin-8-yl]-benzonitrile]
Second: CC1(C)C(=O)Nc2cc(Nc3nc4c(N5CC(O)CC5c5ccccc5)nccn4n3)ccc21 (stereo not shown) [C79, 6-[8-(4-hydroxy-2-phenyl-pyrrolidin-1-yl)-[1,2,4]triazolo[1,5-a]pyrazin-2-ylamino]-3,3-dimethyl-1,3-dihydro-indol-2-one]
The IC50 of the first is lower: less than 0.1 µM for the first, 0.3 to 3 µM for the second.

Compared with CC1(C)C(=O)Nc2cc(Nc3nc4c(NCC5CCCNC5)nccn4n3)ccc21 (stereo not shown) [E79, 3,3-dimethyl-6-{8-[(piperidin-3-ylmethyl)-amino]-[1,2,4]triazolo[1,5-a]pyrazin-2-ylamino}-1,3-dihydro-indol-2-one], CC1(C)C(=O)Nc2cc(Nc3nc4c(NC5CCCNC5)nccn4n3)ccc21 (stereo not shown) [C77, 3,3-dimethyl-6-[8-(piperidin-3-ylamino)-[1,2,4]triazolo[1,5-a]pyrazin-2-ylamino]-1,3-dihydro-indol-2-one] is lower in IC50: 0.3 to 3 µM for the first, less than 0.1 µM for the second.

CC1(C)OC(=O)Nc2cc(Nc3nc4c(N5CCC6(CC5)CNC(=O)O6)nccn4n3)ccc21 [E47, 4,4-dimethyl-7-[8-(2-oxo-1-oxa-3,8-diaza-spiro[4.5]dec-8-yl)-[1,2,4]triazolo[1,5-a]pyrazin-2-ylamino]-1,4-dihydro-benzo[d][1,3]oxazin-2-one] and CC1(C)CC(=O)Nc2cc(Nc3nc4c(N5CC[C@]6(CC(=O)NC6=O)C5)nccn4n3)ccc21 [E49, (S)-7-[2-(4,4-dimethyl-2-oxo-1,2,3,4-tetrahydro-quinolin-7-ylamino)-[1,2,4]triazolo[1,5-a]pyrazin-8-yl]-2,7-diaza-spiro[4.4]nonane-1,3-dione] cannot be ordered by IC50: less than 0.1 µM for the first, less than 0.1 µM for the second.

First: CN(C)c1nccn2nc(Nc3ccc4c(c3)NC(=O)C4(C)C)nc12 [E88, 6-(8-dimethylamino-[1,2,4]triazolo[1,5-a]pyrazin-2-ylamino)-3,3-dimethyl-1,3-dihydro-indol-2-one]
Second: CN(c1nccn2nc(Nc3ccc4c(c3)NC(=O)C4(C)C)nc12)C1CCNCC1 [E17, 3,3-dimethyl-6-[8-(methyl-piperidin-4-yl-amino)-[1,2,4]triazolo[1,5-a]pyrazin-2-ylamino]-1,3-dihydro-indol-2-one]
The IC50 of the first is lower: less than 0.1 µM for the first, 0.1 to 0.3 µM for the second. The first is the more potent here.

First: CC1(C)C(=O)Nc2cc(Nc3nc4c(N[C@H]5CC[C@H](O)CC5)nccn4n3)ccc21 [C76, trans-6-[8-(4-hydroxy-cyclohexylamino)-[1,2,4]triazolo[1,5-a]pyrazin-2-ylamino]-3,3-dimethyl-1,3-dihydro-indol-2-one]
Second: CC1(C)C(=O)Nc2cc(Nc3nc4c(N[C@H]5CC[C@@H](O)CC5)nccn4n3)ccc21 [C75, cis-6-[8-(4-hydroxy-cyclohexylamino)-[1,2,4]triazolo[1,5-a]pyrazin-2-ylamino]-3,3-dimethyl-1,3-dihydro-indol-2-one]
The IC50 of the first is higher: 0.3 to 3 µM for the first, less than 0.1 µM for the second. The second is the more potent here.

Compared with CC(C)(OC(O)C(F)(F)F)c1ccc(Nc2nc3c(N4CCCCCC4)nccn3n2)cc1N (stereo not shown) [E127, 1-{1-[2-amino-4-(8-azepan-1-yl-[1,2,4]triazolo[1,5-a]pyrazin-2-ylamino)-phenyl]-1-methyl-ethoxy}-2,2,2-trifluoro-ethanol], CC1(C)C(=O)Nc2cc(Nc3nc4c(N5CCC(O)(C(F)(F)F)CC5)nccn4n3)ccc21 [E70, 6-[8-(4-hydroxy-4-trifluoromethyl-piperidin-1-yl)-[1,2,4]triazolo[1,5-a]pyrazin-2-ylamino]-3,3-dimethyl-1,3-dihydro-indol-2-one] is lower in IC50: 0.3 to 3 µM for the first, less than 0.1 µM for the second.

Compared with CC1(C)C(=O)Nc2cc(Nc3nc4c(N5CC6(CCNC6)c6cc(Cl)ccc65)nccn4n3)ccc21 (stereo not shown) [E130, 6-[8-(5-Chloro-spiro[indole-3,3′-pyrrolidin]-1-yl)-[1,2,4]triazolo[1,5-a]pyrazin-2-ylamino]-3,3-dimethyl-1,3-dihydro-indol-2-one], CC1(C(N)=O)CCN(c2nccn3nc(Nc4ccc5c(c4)NC(=O)C5(C)C)nc23)C1 (stereo not shown) [E75, 1-[2-(3,3-dimethyl-2-oxo-2,3-dihydro-1H-indol-6-ylamino)-[1,2,4]triazolo[1,5-a]pyrazin-8-yl]-3-methyl-pyrrolidine-3-carboxylic acid amide] is lower in IC50: 0.3 to 3 µM for the first, less than 0.1 µM for the second.

CC1(C)C(=O)Nc2cc(Nc3nc4c(N5Cc6cn[nH]c6C5)nccn4n3)ccc21 [E32, 6-[8-(4,6-dihydro-1H-pyrrolo[3,4-c]pyrazol-5-yl)-[1,2,4]triazolo[1,5-a]pyrazin-2-ylamino]-3,3-dimethyl-1,3-dihydro-indol-2-one] showed an IC50 of less than 0.1 µM.
